In patent US20250042974A1, “LIPID MEDIATOR CHAPERONE AND USES THEREOF” (The Children's Medical Center Corporation, priority 2021, published 2025):
Each block holds one molecule with its values, some of them ahead of it.

Tests used:
NF-κB = assay: TNFα-induced NF-κB luciferase reporter assay in HMEC; assay type: cell-based, human
Procedure: TNFα-dependent NF-κB signaling was determined by using an NFκB-Luciferase based reporter assay system (pGL4.32[luc2P/NF-κB-RE/Hygro]; Promega). A stable NFκB reporter cell line in human microvascular endothelial cells (HMEC-1; ATCC) was created. HMEC were maintained in 10% FCS/Pen-Strep MCDB media supplemented with 2 mM L-Glutamine (Sigma), EGF (2 ng/ml; R&D systems) and Hydrocortisone (1 ng/ml; Sigma). […] The 5×10^5 reporter cells were distributed to 12 well plates and allowed to adhere for 24 hours. Media was replaced with MCDB media supplemented with 1% FCS, L-Glutamine. […] Samples were extracted using cell lysis buffers (Promega), luciferin substrate was added and the plates were measured for […] at 470 nm for 8-15 minutes in a SpectraMax L 96-well plate reader (Molecular Devices).

HUVEC = assay: TEER analysis of endothelial barrier function; assay type: cell-based, human; settings: Iloprost 200 nM; HDL-S1P 100 nM S1P; AUY954 1 μM
Procedure: Transendothelial Electrical Resistance (TEER) was performed on HUVEC as described previously (Swendeman et al, 2017). Essentially, HUVECs were maintained in HUVEC Growth Medium (HGM; M199 medium supplemented with 10% FCS (Corning), 1:100 Pen-Strep (Sigma), 8 mM Glutamine (Sigma), Heparin (Sigma, 100 U, LMW) and Sheep Brain Extract prepared (REF). All cultures were maintained on Fibrobronectin (2 μg/ml) coated plates. For TEER analysis a 96 well ECIS system (96W10idf PET array, Applied BioPhysics) was employed. Wells were coated with Fibronectin (2 μg/ml) resuspended in saline for 30 minutes at room temp. HUVECs were harvested, resuspended in HGM at a cell density of 25-30×10^3 cells/well and allowed to adhere overnight. Prior to analysis, culture media was removed and replaced with M199 media supplemented with Pen-Strep/Glutamine and 1% FCS for 30 minutes. For stimulation studies, either Iloprost (Cayman Biochemicals) or Iloprost loaded onto ApoA1 or ApoA1-ApoM chaperones, or S1P prepared on ApoA1-ApoM or ApoM-Fc chaperones were added to cultures and TEER studies were performed from 3-24 hours.

human platelets = assay: Human platelet aggregation in vitro (light transmission aggregometry); assay type: cell-based; settings: SFLLRN peptide-induced, 2-20 nM drug, N=2, read-out: EC50 of inhibition of platelet aggregation
Procedure: Whole blood samples were drawn from healthy donors in the presence of 10% sodium citrate (Sigma, 5577-50 ml) and were spun at 1000 rpm using Beckman centrifuge (GS-6K) for 20 min. The top Platelet-rich Plasma (PRP) layer was collected resting at a 37° C. water bath for 30 minutes. PRP was diluted with the one-fifth volume of the acid-citrate-dextrose buffer, Prostaglandin E1 (PGE1) was added to a final concentration of 0.15 μM. The mixture was spun in a conical-bottom tube at 2000 g for 10 min, and the platelet pellet was collected and suspended in pre-warmed HEPES-Tyrode-Glucose Buffer (HTG). The platelet concentration was determined and adjusted to ˜2.5×10^5/μL with HTG on a Hematology cell counter System (Drew Scientific, 850FS).
Light Transmission Aggregometry was used to evaluate the platelet response to agonists and antagonists. In a 4-channel aggregometer (Platelet ionized calcium aggregometer, Chronolog Corp Model 660), human platelets were stirred in a cuvette at 37° C. […] Data were analyzed using AGGRO/LINK software package Ver 5.2.5 and Microsoft office professional plus 2013.

inhibition of TNFα-induced NF-κB activity at higher doses (NF-κB; 100-400 μg/ml, bi-phasic dose-response): not as inhibitory
inhibition of TNFα-induced NF-κB activity (NF-κB; low doses 25-50 μg/ml): ~25%
Molecule: ApoA1: Purified Human ApoA1 (Sigma) [reference compound]

Molecule: O=C(O)CCNCc1ccc2sc(-c3ccc(-c4ccccc4)c(C(F)(F)F)c3)cc2c1 [AUY954, reference compound]
endothelial barrier function in combination with Iloprost (HUVEC): additive manner

EC50 (human platelets): ~11 nM
Molecule: CC#CCC(C)[C@H](O)/C=C/[C@@H]1[C@H]2C/C(=C/CCCC(=O)O)C[C@H]2C[C@H]1O (stereo partly shown) [Iloprost]
